Measurements taken from patent US10765114B2, “4-amino-6-(pyridyl and 2-substitutedphenyl)-picolinates and 6-amino-2-(pyridyl and 2-substitutedphenyl)-pyrimidine-4-carboxylates and their use as herbicides” (Dow AgroSciences LLC, priority 2013, dated 2020).

System: Key Grass and Sedge Weeds as well as Grass Crops
Assay: Post-Emergent Test II (Table 6)
Format: in vivo
Conditions: post-emergence, 336 h, CYPSS, 70 g ai/ha, 14 days after application, read-out: Visual Growth Reduction (%) 14 Days After Application CYPSS
In short: (§1)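 Visual injury ratings (0 = no injury, 100 = complete kill) were taken 14 days after treatment relative to untreated plants. Seedlings at the first or second true leaf stage received an overhead spray at 187 L/ha, and solvent-blank sprayed plants served as controls.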

| SMILES | pest or weed control at 70 g/ha [%] |
| --- | --- |
| COC(=O)c1nc(-c2ccc(C(F)(F)F)nc2)c(C)c(N)c1Cl [Compound 32] | 95 to 100 |

Same assay, conditions: post-emergence, 336 h, CYPSS, 140 g ai/ha, 14 days after application, read-out: Visual Growth Reduction (%) 14 Days After Application CYPSS

| SMILES | pest or weed control at 140 g/ha [%] |
| --- | --- |
| COC(=O)c1nc(-c2ccc(C(F)(F)F)nc2)c(C)c(N)c1Cl [Compound 32] | 95 to 100 |

Same assay, conditions: post-emergence, 336 h, DIGSA: crabgrass (Digitaria sanguinalis), 70 g ai/ha, 14 days after application, read-out: Visual Growth Reduction (%) 14 Days After Application DIGSA

| SMILES | pest or weed control at 70 g/ha [%] |
| --- | --- |
| COC(=O)c1nc(-c2ccc(C(F)(F)F)nc2)c(C)c(N)c1Cl [Compound 32] | 75 to 84 |

Same assay, conditions: post-emergence, 336 h, DIGSA: crabgrass (Digitaria sanguinalis), 140 g ai/ha, 14 days after application, read-out: Visual Growth Reduction (%) 14 Days After Application DIGSA

| SMILES | pest or weed control at 140 g/ha [%] |
| --- | --- |
| COC(=O)c1nc(-c2ccc(C(F)(F)F)nc2)c(C)c(N)c1Cl [Compound 32] | 75 to 84 |

Same assay, conditions: post-emergence, 336 h, ECHSS, 70 g ai/ha, 14 days after application, read-out: Visual Growth Reduction (%) 14 Days After Application ECHSS

| SMILES | pest or weed control at 70 g/ha [%] |
| --- | --- |
| COC(=O)c1nc(-c2ccc(C(F)(F)F)nc2)c(C)c(N)c1Cl [Compound 32] | 85 to 94 |

Same assay, conditions: post-emergence, 336 h, ECHSS, 140 g ai/ha, 14 days after application, read-out: Visual Growth Reduction (%) 14 Days After Application ECHSS

| SMILES | pest or weed control at 140 g/ha [%] |
| --- | --- |
| COC(=O)c1nc(-c2ccc(C(F)(F)F)nc2)c(C)c(N)c1Cl [Compound 32] | 85 to 94 |

Same assay, conditions: post-emergence, 336 h, ORYSS (crop), 70 g ai/ha, 14 days after application, read-out: Visual Growth Reduction (%) 14 Days After Application ORYSS

| SMILES | pest or weed control at 70 g/ha [%] |
| --- | --- |
| COC(=O)c1nc(-c2ccc(C(F)(F)F)nc2)c(C)c(N)c1Cl [Compound 32] | 0 to 29 |

Same assay, conditions: post-emergence, 336 h, ORYSS (crop), 140 g ai/ha, 14 days after application, read-out: Visual Growth Reduction (%) 14 Days After Application ORYSS

| SMILES | pest or weed control at 140 g/ha [%] |
| --- | --- |
| COC(=O)c1nc(-c2ccc(C(F)(F)F)nc2)c(C)c(N)c1Cl [Compound 32] | 0 to 29 |

Same assay, conditions: post-emergence, 336 h, SETFA: giant foxtail (Setaria faberi), 70 g ai/ha, 14 days after application, read-out: Visual Growth Reduction (%) 14 Days After Application SETFA

| SMILES | pest or weed control at 70 g/ha [%] |
| --- | --- |
| COC(=O)c1nc(-c2ccc(C(F)(F)F)nc2)c(C)c(N)c1Cl [Compound 32] | 85 to 94 |

Same assay, conditions: post-emergence, 336 h, SETFA: giant foxtail (Setaria faberi), 140 g ai/ha, 14 days after application, read-out: Visual Growth Reduction (%) 14 Days After Application SETFA

| SMILES | pest or weed control at 140 g/ha [%] |
| --- | --- |
| COC(=O)c1nc(-c2ccc(C(F)(F)F)nc2)c(C)c(N)c1Cl [Compound 32] | 85 to 94 |

Same assay, conditions: post-emergence, 336 h, SORVU: grain sorghum (Sorghum vulgare), 70 g ai/ha, 14 days after application, read-out: Visual Growth Reduction (%) 14 Days After Application SORVU

| SMILES | pest or weed control at 70 g/ha [%] |
| --- | --- |
| COC(=O)c1nc(-c2ccc(C(F)(F)F)nc2)c(C)c(N)c1Cl [Compound 32] | 60 to 74 |

Same assay, conditions: post-emergence, 336 h, SORVU: grain sorghum (Sorghum vulgare), 140 g ai/ha, 14 days after application, read-out: Visual Growth Reduction (%) 14 Days After Application SORVU

| SMILES | pest or weed control at 140 g/ha [%] |
| --- | --- |
| COC(=O)c1nc(-c2ccc(C(F)(F)F)nc2)c(C)c(N)c1Cl [Compound 32] | 75 to 84 |

Same assay, conditions: post-emergence, 336 h, TRZSS (crop), 70 g ai/ha, 14 days after application, read-out: Visual Growth Reduction (%) 14 Days After Application TRZSS

| SMILES | pest or weed control at 70 g/ha [%] |
| --- | --- |
| COC(=O)c1nc(-c2ccc(C(F)(F)F)nc2)c(C)c(N)c1Cl [Compound 32] | 60 to 74 |

Same assay, conditions: post-emergence, 336 h, TRZSS (crop), 140 g ai/ha, 14 days after application, read-out: Visual Growth Reduction (%) 14 Days After Application TRZSS

| SMILES | pest or weed control at 140 g/ha [%] |
| --- | --- |
| COC(=O)c1nc(-c2ccc(C(F)(F)F)nc2)c(C)c(N)c1Cl [Compound 32] | 60 to 74 |

Same assay, conditions: post-emergence, 336 h, ZEAMX: maize, corn (Zea mays), 70 g ai/ha, 14 days after application, read-out: Visual Growth Reduction (%) 14 Days After Application ZEAMX

| SMILES | pest or weed control at 70 g/ha [%] |
| --- | --- |
| COC(=O)c1nc(-c2ccc(C(F)(F)F)nc2)c(C)c(N)c1Cl [Compound 32] | 60 to 74 |

Same assay, conditions: post-emergence, 336 h, ZEAMX: maize, corn (Zea mays), 140 g ai/ha, 14 days after application, read-out: Visual Growth Reduction (%) 14 Days After Application ZEAMX

| SMILES | pest or weed control at 140 g/ha [%] |
| --- | --- |
| COC(=O)c1nc(-c2ccc(C(F)(F)F)nc2)c(C)c(N)c1Cl [Compound 32] | 60 to 74 |

System: not given
Assay: not given
Conditions: not given

| melting point [°C] | SMILES |
| --- | --- |
| 145 | COC(=O)c1nc(-c2ccc(C(F)(F)F)nc2)c(C)c(N)c1Cl [Compound 32] |

System: Key Broadleaf Weed and Crop Species
Assay: Post-Emergent Test II (Table 5)
Format: in vivo
Conditions: Abutilon theophrasti, post-emergence, 336 h, ABUTH: velvetleaf (Abutilon theophrasti), application rate 70 (kg ai/ha; footnote: g ai/ha), read-out: Visual Growth Reduction (%) 14 Days After Application ABUTH
In short: as §1

| SMILES | pest or weed control at 70 g/ha [%] |
| --- | --- |
| COC(=O)c1nc(-c2ccc(C(F)(F)F)nc2)c(C)c(N)c1Cl [Compound 32] | 45 to 59 |

Same assay, conditions: Abutilon theophrasti, post-emergence, 336 h, ABUTH: velvetleaf (Abutilon theophrasti), application rate 140 (kg ai/ha; footnote: g ai/ha), read-out: Visual Growth Reduction (%) 14 Days After Application ABUTH

| SMILES | pest or weed control at 140 g/ha [%] |
| --- | --- |
| COC(=O)c1nc(-c2ccc(C(F)(F)F)nc2)c(C)c(N)c1Cl [Compound 32] | 85 to 94 |

Same assay, conditions: Amaranthus retroflexus, post-emergence, 336 h, AMARE: redroot pigweed (Amaranthus retroflexus), application rate 70 (kg ai/ha; footnote: g ai/ha), read-out: Visual Growth Reduction (%) 14 Days After Application AMARE

| SMILES | pest or weed control at 70 g/ha [%] |
| --- | --- |
| COC(=O)c1nc(-c2ccc(C(F)(F)F)nc2)c(C)c(N)c1Cl [Compound 32] | 0 to 29 |

Same assay, conditions: Amaranthus retroflexus, post-emergence, 336 h, AMARE: redroot pigweed (Amaranthus retroflexus), application rate 140 (kg ai/ha; footnote: g ai/ha), read-out: Visual Growth Reduction (%) 14 Days After Application AMARE

| SMILES | pest or weed control at 140 g/ha [%] |
| --- | --- |
| COC(=O)c1nc(-c2ccc(C(F)(F)F)nc2)c(C)c(N)c1Cl [Compound 32] | 0 to 29 |

Same assay, conditions: Brassica napus, post-emergence, 336 h, BRSSS: oilseed rape, canola (Brassica napus), application rate 70 (kg ai/ha; footnote: g ai/ha), read-out: Visual Growth Reduction (%) 14 Days After Application BRSSS

| SMILES | pest or weed control at 70 g/ha [%] |
| --- | --- |
| COC(=O)c1nc(-c2ccc(C(F)(F)F)nc2)c(C)c(N)c1Cl [Compound 32] | 60 to 74 |

Same assay, conditions: Brassica napus, post-emergence, 336 h, BRSSS: oilseed rape, canola (Brassica napus), application rate 140 (kg ai/ha; footnote: g ai/ha), read-out: Visual Growth Reduction (%) 14 Days After Application BRSSS

| SMILES | pest or weed control at 140 g/ha [%] |
| --- | --- |
| COC(=O)c1nc(-c2ccc(C(F)(F)F)nc2)c(C)c(N)c1Cl [Compound 32] | 75 to 84 |

Same assay, conditions: Chenopodium album, post-emergence, 336 h, CHEAL: lambsquarters (Chenopodium album), application rate 70 (kg ai/ha; footnote: g ai/ha), read-out: Visual Growth Reduction (%) 14 Days After Application CHEAL

| SMILES | pest or weed control at 70 g/ha [%] |
| --- | --- |
| COC(=O)c1nc(-c2ccc(C(F)(F)F)nc2)c(C)c(N)c1Cl [Compound 32] | 85 to 94 |

Same assay, conditions: Chenopodium album, post-emergence, 336 h, CHEAL: lambsquarters (Chenopodium album), application rate 140 (kg ai/ha; footnote: g ai/ha), read-out: Visual Growth Reduction (%) 14 Days After Application CHEAL

| SMILES | pest or weed control at 140 g/ha [%] |
| --- | --- |
| COC(=O)c1nc(-c2ccc(C(F)(F)F)nc2)c(C)c(N)c1Cl [Compound 32] | 85 to 94 |

Same assay, conditions: Euphorbia heterophylla, post-emergence, 336 h, EPHHL: wild poinsettia (Euphorbia heterophylla), application rate 70 (kg ai/ha; footnote: g ai/ha), read-out: Visual Growth Reduction (%) 14 Days After Application EPHHL

| SMILES | pest or weed control at 70 g/ha [%] |
| --- | --- |
| COC(=O)c1nc(-c2ccc(C(F)(F)F)nc2)c(C)c(N)c1Cl [Compound 32] | 0 to 29 |

Same assay, conditions: Euphorbia heterophylla, post-emergence, 336 h, EPHHL: wild poinsettia (Euphorbia heterophylla), application rate 140 (kg ai/ha; footnote: g ai/ha), read-out: Visual Growth Reduction (%) 14 Days After Application EPHHL

| SMILES | pest or weed control at 140 g/ha [%] |
| --- | --- |
| COC(=O)c1nc(-c2ccc(C(F)(F)F)nc2)c(C)c(N)c1Cl [Compound 32] | 0 to 29 |

Same assay, conditions: Helianthus annuus, post-emergence, 336 h, HELAN: sunflower (Helianthus annuus), application rate 70 (kg ai/ha; footnote: g ai/ha), read-out: Visual Growth Reduction (%) 14 Days After Application HELAN

| SMILES | pest or weed control at 70 g/ha [%] |
| --- | --- |
| COC(=O)c1nc(-c2ccc(C(F)(F)F)nc2)c(C)c(N)c1Cl [Compound 32] | 95 to 100 |

Same assay, conditions: Helianthus annuus, post-emergence, 336 h, HELAN: sunflower (Helianthus annuus), application rate 140 (kg ai/ha; footnote: g ai/ha), read-out: Visual Growth Reduction (%) 14 Days After Application HELAN

| SMILES | pest or weed control at 140 g/ha [%] |
| --- | --- |
| COC(=O)c1nc(-c2ccc(C(F)(F)F)nc2)c(C)c(N)c1Cl [Compound 32] | 95 to 100 |

Same assay, conditions: Viola tricolor, post-emergence, 336 h, VIOTR: wild pansy (Viola tricolor), application rate 70 (kg ai/ha; footnote: g ai/ha), read-out: Visual Growth Reduction (%) 14 Days After Application VIOTR

| SMILES | pest or weed control at 70 g/ha [%] |
| --- | --- |
| COC(=O)c1nc(-c2ccc(C(F)(F)F)nc2)c(C)c(N)c1Cl [Compound 32] | 45 to 59 |

Same assay, conditions: Viola tricolor, post-emergence, 336 h, VIOTR: wild pansy (Viola tricolor), application rate 140 (kg ai/ha; footnote: g ai/ha), read-out: Visual Growth Reduction (%) 14 Days After Application VIOTR

| SMILES | pest or weed control at 140 g/ha [%] |
| --- | --- |
| COC(=O)c1nc(-c2ccc(C(F)(F)F)nc2)c(C)c(N)c1Cl [Compound 32] | 75 to 84 |
